Drawing on patent US9376454B2, “Beta-lactamase inhibitors” (priority 2013, dated 2016), this text covers IC50 for 19 compounds.

Type in all cases: biochemical
For assay [1], the target named is T1, p99 AmpC β-lactamase (Enterobacter cloacae, UniProt P05364).
T1 construct: made in house; host or cells: E. coli BL21(DE3)
The assay is described as follows: β-Lactamase inhibition enzyme assay, p99 AmpC. Put shortly:
(§1)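 Native untagged β-lactamases from E. coli BL21(DE3) were purified and preincubated with inhibitor 15 min at 37° C. Hydrolysis was then followed as initial rates: 100 μM nitrocefin at 486 nm for p99 AmpC and OXA-1, imipenem at 300 nm for KPC-2, cefotaxime at 260 nm for SHV-5. IC50 = 50% reduction versus no-inhibitor controls.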

Assay [2] addresses T2, SHV-5 β-lactamase (Klebsiella pneumoniae, UniProt P0A3M1).
T2 construct: made in house; host or cells: E. coli BL21(DE3)
The assay is described as follows: β-Lactamase inhibition enzyme assay, SHV-5. Put shortly: as §1

The target of assay [3] is T3, VIM-2 metallo β-lactamase (Pseudomonas aeruginosa, UniProt Q9K2N0).
T3 construct: made in house; host or cells: E. coli BL21(DE3)
The assay is described as follows: β-Lactamase inhibition enzyme assay, VIM-2. Particulars: Nitrocefin 100 μM as substrate, 486 nm; 15 min at 37° C. with enzyme, PBS pH 7.4; read-out: Class B VIM-2 IC50. The method, boiled down: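 Purified untagged VIM-2, expressed in E. coli BL21(DE3), preincubated with inhibitor 15 min at 37 °C. Nitrocefin added at 100 μM final, and absorbance at 486 nm monitored for 10 min. IC50 taken as inhibitor concentration halving initial hydrolysis rate relative to uninhibited controls.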

In assay [4] the target is T4, OXA-1 β-lactamase (Escherichia coli, UniProt P13661).
T4 construct: made in house; host or cells: E. coli BL21(DE3)
The assay is described as follows: β-Lactamase inhibition enzyme assay, OXA-1. To be noted: Nitrocefin 100 μM as substrate, 486 nm; 15 min at 37° C. with enzyme, PBS pH 7.4; read-out: Class D OXA-1 IC50. The method, boiled down: as §1

In assay [5] the target is T5, KPC-2 β-lactamase (Klebsiella pneumoniae, UniProt Q9F663).
T5 construct: made in house; host or cells: E. coli BL21(DE3)
Nature of the assay: β-Lactamase inhibition enzyme assay, KPC-2. Particulars: imipenem as substrate, 300 nm; 15 min at 37° C. with enzyme, PBS pH 7.4; read-out: Class A KPC-2 IC50. Put shortly: as §1

The structures appear in SMILES notation.

T2 sequence (P0A3M1 22-286): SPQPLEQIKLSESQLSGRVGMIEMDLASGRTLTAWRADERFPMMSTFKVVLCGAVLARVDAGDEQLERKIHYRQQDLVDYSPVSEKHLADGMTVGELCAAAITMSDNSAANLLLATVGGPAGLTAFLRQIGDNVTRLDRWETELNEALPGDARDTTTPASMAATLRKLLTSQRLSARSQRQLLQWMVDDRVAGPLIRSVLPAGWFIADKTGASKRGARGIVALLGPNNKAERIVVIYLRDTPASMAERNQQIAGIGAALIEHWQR
T5 sequence (Q9F663 25-293, looked up): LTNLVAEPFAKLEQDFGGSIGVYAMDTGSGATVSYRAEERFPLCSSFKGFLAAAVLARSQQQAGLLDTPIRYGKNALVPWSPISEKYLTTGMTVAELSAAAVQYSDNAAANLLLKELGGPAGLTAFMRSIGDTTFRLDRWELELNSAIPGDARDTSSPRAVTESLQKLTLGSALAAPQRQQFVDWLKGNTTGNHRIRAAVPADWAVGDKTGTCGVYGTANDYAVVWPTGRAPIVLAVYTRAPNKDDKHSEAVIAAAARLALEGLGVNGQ
T1 sequence (P05364 21-381): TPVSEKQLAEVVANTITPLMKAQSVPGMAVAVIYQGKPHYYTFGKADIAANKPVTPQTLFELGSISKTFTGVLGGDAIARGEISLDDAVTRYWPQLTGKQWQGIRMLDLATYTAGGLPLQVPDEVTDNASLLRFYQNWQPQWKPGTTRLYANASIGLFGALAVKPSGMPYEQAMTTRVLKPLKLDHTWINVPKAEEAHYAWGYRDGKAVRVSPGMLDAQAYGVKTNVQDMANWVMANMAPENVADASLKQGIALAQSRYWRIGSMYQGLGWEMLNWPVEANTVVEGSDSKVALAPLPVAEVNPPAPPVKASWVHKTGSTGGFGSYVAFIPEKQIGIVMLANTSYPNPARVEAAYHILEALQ
T4 sequence (P13661 26-276): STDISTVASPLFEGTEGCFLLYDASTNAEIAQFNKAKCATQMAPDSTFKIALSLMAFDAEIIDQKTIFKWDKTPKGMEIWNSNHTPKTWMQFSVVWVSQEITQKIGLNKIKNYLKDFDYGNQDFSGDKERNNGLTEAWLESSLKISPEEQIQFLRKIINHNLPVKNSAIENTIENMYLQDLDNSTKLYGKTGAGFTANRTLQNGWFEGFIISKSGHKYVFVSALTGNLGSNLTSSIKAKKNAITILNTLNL

With `NCCn1ccc2c(C(=O)N[C@H]3Cc4cccc(C(=O)O)c4OB3O)cccc21` [Example 42, (R)-3-{[1-(2-Amino-ethyl)-1H-indole-4-carbonyl]-amino}-2-hydroxy-3,4-dihydro-2H-benzo[e][1,2]oxaborinine-8-carboxylic acid], the half-maximal inhibitory concentration (IC50) is under 100 nM in assay [1]; under 100 nM in assay [2]; 100 to 1000 nM in assay [3]; under 100 nM in assay [4]; under 100 nM in assay [5].

`Cn1ccc2ccc(C(=O)N[C@H]3Cc4cccc(C(=O)O)c4OB3O)cc21` [Example 43, (R)-2-Hydroxy-3-[(1-methyl-1H-indole-6-carbonyl)-amino]-3,4-dihydro-2H-benzo[e][1,2]oxaborinine-8-carboxylic acid]: the IC50 is under 100 nM in assay [1]; 100 to 1000 nM in assay [2]; 100 to 1000 nM in assay [3]; under 100 nM in assay [4]; under 100 nM in assay [5].

On to `N=C(N)NCc1cc(CNC(=N)N)cc(C(=O)N[C@H]2Cc3cccc(C(=O)O)c3OB2O)c1` [Example 45, (R)-3-(3,5-bis(guanidinomethyl)benzamido)-2-hydroxy-3,4-dihydro-2H-benzo[e][1,2]oxaborinine-8-carboxylic acid], for which the 50% inhibitory concentration (IC50) in assay [1] is under 100 nM; in assay [2], 100 to 1000 nM; in assay [3], under 100 nM; in assay [4], under 100 nM; in assay [5], under 100 nM.

With `O=C(Cc1ccc2cc[nH]c2c1)N[C@H]1Cc2cccc(C(=O)O)c2OB1O` [Example 46, (R)-2-Hydroxy-3-(2-1H-indol-6-yl-acetylamino)-3,4-dihydro-2H-benzo[e][1,2]oxaborinine-8-carboxylic acid], the IC50 in assay [1], in assay [2], in assay [3], in assay [4] and in assay [5] was under 100 nM throughout.

For `O=C(N[C@H]1Cc2cccc(C(=O)O)c2OB1O)c1ccc(-c2ncc[nH]2)cc1` [Example 47, (R)-2-Hydroxy-3-[4-(1H-imidazol-2-yl)-benzoylamino]-3,4-dihydro-2H-benzo[e][1,2]oxaborinine-8-carboxylic acid], the IC50 is under 100 nM in assay [1]; under 100 nM in assay [2]; 100 to 1000 nM in assay [3]; under 100 nM in assay [4]; under 100 nM in assay [5].

For `CN1Cc2ccc(CC(=O)N[C@H]3Cc4cccc(C(=O)O)c4OB3O)cc2C1` [Example 48, (R)-2-Hydroxy-3-[2-(2-methyl-2,3-dihydro-1H-isoindol-5-yl)-acetylamino]-3,4-dihydro-2H-benzo[e][1,2]oxaborinine-8-carboxylic acid], the IC50 in assay [1], in assay [2], in assay [3], in assay [4] and in assay [5] was under 100 nM in each case.

Take `NCCN1Cc2ccc(CC(=O)N[C@H]3Cc4cccc(C(=O)O)c4OB3O)cc2C1` [Example 49, (R)-3-{2-[2-(2-Amino-ethyl)-2,3-dihydro-1H-isoindol-5-yl]-acetylamino}-2-hydroxy-3,4-dihydro-2H-benzo[e][1,2]oxaborinine-8-carboxylic acid]: the IC50 is under 100 nM in assay [1]; under 100 nM in assay [2]; 100 to 1000 nM in assay [3]; under 100 nM in assay [4]; under 100 nM in assay [5].

As to `O=C(N[C@H]1Cc2cccc(C(=O)O)c2OB1O)c1cnc2c(c1)CNC2` [Example 50, (3R)-3-(6,7-dihydro-5H-pyrrolo[3,4-b]pyridine-3-carbonylamino)-2-hydroxy-3,4-dihydro-1,2-benzoxaborinine-8-carboxylic acid], the IC50 in assay [1] is under 100 nM; in assay [2], under 100 nM; in assay [3], 100 to 1000 nM; in assay [4] it was under 100 nM; in assay [5] it was under 100 nM.

Regarding `O=C(Cc1ccc2c(c1)CNCC2)N[C@H]1Cc2cccc(C(=O)O)c2OB1O` [Example 51, (R)-2-Hydroxy-3-(2-1,2,3,4-tetrahydro-isoquinolin-7-yl-acetylamino)-3,4-dihydro-2H-benzo[e][1,2]oxaborinine-8-carboxylic acid], the IC50 in assay [1], in assay [2], in assay [3], in assay [4] and in assay [5] was under 100 nM each time.

With `O=C(N[C@H]1Cc2cccc(C(=O)O)c2OB1O)c1cnco1` [Example 52, (R)-2-Hydroxy-3-[(oxazole-5-carbonyl)-amino]-3,4-dihydro-2H-benzo[e][1,2]oxaborinine-8-carboxylic acid], the concentration for half-maximal inhibition (IC50) was under 100 nM in assay [1]; under 100 nM in assay [2]; 100 to 1000 nM in assay [3]; under 100 nM in assay [4]; under 100 nM in assay [5].

On to `O=C(O)c1ccccc1C(=O)N[C@H]1Cc2cccc(C(=O)O)c2OB1O` [Example 53, (R)-3-(2-carboxybenzamido)-2-hydroxy-3,4-dihydro-2H-benzo[e][1,2]oxaborinine-8-carboxylic acid], for which the half-maximal inhibitory concentration (IC50) in assay [1] was under 100 nM; in assay [2] it was 100 to 1000 nM; in assay [3], 1000 to 10000 nM; in assay [4], under 100 nM; in assay [5], 100 to 1000 nM.

For `NCCNC(=O)c1ccccc1C(=O)N[C@H]1Cc2cccc(C(=O)O)c2OB1O` [Example 54, (R)-3-(2-(2-aminoethylcarbamoyl)benzamido)-2-hydroxy-3,4-dihydro-2H-benzo[e][1,2]oxaborinine-8-carboxylic acid], the 50% inhibitory concentration (IC50) in assay [1] was under 100 nM; in assay [2] it was 100 to 1000 nM; in assay [3], 1000 to 10000 nM; in assay [4], 1000 to 10000 nM; in assay [5], 100 to 1000 nM.

For `CC(C)NCc1cc(C(=O)N[C@H]2Cc3cccc(C(=O)O)c3OB2O)ccc1CN` [Example 55, (R)-3-(4-(aminomethyl)-3-((isopropylamino)methyl)benzamido)-2-hydroxy-3,4-dihydro-2H-benzo[e][1,2]oxaborinine-8-carboxylic acid], the IC50 is 100 to 1000 nM in assay [1]; 100 to 1000 nM in assay [2]; 100 to 1000 nM in assay [3]; 100 to 1000 nM in assay [4]; 1000 to 10000 nM in assay [5].

For `CC(C)NCc1ccc(C(=O)N[C@H]2Cc3cccc(C(=O)O)c3OB2O)cc1CNC(C)C` [Example 56, (R)-3-(3,4-bis((isopropylamino)methyl)benzamido)-2-hydroxy-3,4-dihydro-2H-benzo[e][1,2]oxaborinine-8-carboxylic acid], the IC50 was under 100 nM in assay [1]; under 100 nM in assay [2]; 100 to 1000 nM in assay [3]; under 100 nM in assay [4]; under 100 nM in assay [5].

For `NCCNc1ccc(CC(=O)N[C@H]2Cc3cccc(C(=O)O)c3OB2O)cc1` [Example 57, (R)-3-(2-(4-(2-aminoethylamino)phenyl)acetamido)-2-hydroxy-3,4-dihydro-2H-benzo[e][1,2]oxaborinine-8-carboxylic acid], the IC50 in assay [1] was under 100 nM; in assay [2], under 100 nM; in assay [3] it was 1000 to 10000 nM; in assay [4], under 100 nM; in assay [5], under 100 nM.

Regarding `NCCOc1ccc(CC(=O)N[C@H]2Cc3cccc(C(=O)O)c3OB2O)cc1OCCN` [Example 58, (R)-3-(2-(3,4-bis(2-aminoethoxy)phenyl)acetamido)-2-hydroxy-3,4-dihydro-2H-benzo[e][1,2]oxaborinine-8-carboxylic acid], the IC50 was under 100 nM in assay [1]; under 100 nM in assay [2]; 100 to 1000 nM in assay [3]; under 100 nM in assay [4]; under 100 nM in assay [5].

`NCCOc1ccc(CC(=O)N[C@H]2Cc3cccc(C(=O)O)c3OB2O)cc1O` [Example 59, (R)-3-(2-(4-(2-aminoethoxy)-3-hydroxyphenyl)acetamido)-2-hydroxy-3,4-dihydro-2H-benzo[e][1,2]oxaborinine-8-carboxylic acid]: the IC50 in assay [1] was under 100 nM; in assay [2] it was under 100 nM; in assay [3], 100 to 1000 nM; in assay [4] it was under 100 nM; in assay [5], under 100 nM.

Take `NCCNc1ccc(CC(=O)N[C@H]2Cc3cccc(C(=O)O)c3OB2O)cn1` [Example 60, (R)-3-(2-(6-(2-aminoethylamino)pyridin-3-yl)acetamido)-2-hydroxy-3,4-dihydro-2H-benzo[e][1,2]oxaborinine-8-carboxylic acid]: the concentration for half-maximal inhibition (IC50) in assay [1] is under 100 nM; in assay [2], under 100 nM; in assay [3], 100 to 1000 nM; in assay [4], under 100 nM; in assay [5] it was under 100 nM.

Turning to `NCCNc1ccc(CC(=O)N[C@H]2Cc3cccc(C(=O)O)c3OB2O)c[n+]1[O-]` [Example 61, (R)-2-(2-aminoethylamino)-5-(2-(8-carboxy-2-hydroxy-3,4-dihydro-2H-benzo[e][1,2]oxaborinin-3-ylamino)-2-oxoethyl)pyridine 1-oxide], the IC50 in assay [1] is under 100 nM; in assay [2], under 100 nM; in assay [3], 100 to 1000 nM; in assay [4], under 100 nM; in assay [5], under 100 nM.
